Here are results for one molecule from patent publication EP4608400B1, “COMPOUND FOR TREATMENT OF PAIN” (Initiator Pharma A/S, priority 2022, dated 2024).

The IC50 is the concentration at which inhibition is half-maximal. As usually defined, the minimal effective dose is the lowest level tested that produced the effect sought. The Tmax is the time at which the peak concentration occurs.

Series [1] has as its target T1, norepinephrine transporter (NET) (Homo sapiens, UniProt P23975).
T1 construct: expressed in transfected cells
Description: Inhibition of human transporter in stable epithelial cell lines (NET). In kind it is cell-based. To be noted: average of two replicates (n=2). As to the method: Compounds were tested for their ability to inhibit the reuptake of the monoamine neurotransmitters dopamine (DA), noradrenaline (NA), and serotonin (5-HT) in synaptosomes as described in WO 97/16451 (NeuroSearch A/S). In addition, the compounds were tested in human epithelial cells expressing human transporters for 5-HT (SERT), dopamine (DAT), and norepinephrine (NET).
The results are the average of two-replicates per experiment (n=2).

Series [2] concerns formalin-induced flinching behaviour. In words: Automated rat formalin test of persistent nociceptive pain. In kind it is in vivo, Sprague-Dawley rats. As to the method: All treatments were administered s.c. in a dosing volume of 2 ml/kg 60 min prior to formalin injection.
Adult male Sprague-Dawley rats (Harlan Scandinavia, Alleroed, Denmark) were used. They were housed in Macrolon III cages (20 x 14 x 18 cm or 20 x 40 x18 cm; in groups of 2-5 per cage according to weight) containing wood-chip bedding material (3 x 1 x 4 mm). The environment was temperature (20 ± 2°C) and humidity (55 ± 15%) controlled and consisted of a light-dark cycle of 13:11 h (lights on at 06.00 h and off at 19.00 h). Food (Altromin®) and water were available ad libitum. The rats were allowed to habituate to the housing facilities for at least one week prior to being randomly assigned to behavioural experiments. At the end of each experiment rats were euthanized by cervical dislocation. All experiments were performed according to the Ethical Guidelines of the International Association for the Study of Pain (Zimmermann, 1983) and the Danish Committee for Experiments on Animals.
As highlighted in the Procedures section below 4 rats were included in each automated testing session. 4 individual treatments were assessed during the session and treatments were rotated to minimise bias associated with a particular testing chamber. […]
Assessment of formalin-induced flinching behaviour in normal, uninjured rats (body weight 180-220 g) was made with the use of an Automated Nociception Analyser (University of California, San Diego, CA; Yaksh et al., 2001). […] They were then returned to their separate observation chambers, each of which were in turn situated upon an enclosed detection device consisting of two electromagnetic coils designed to produce an electromagnetic field in which movement of the metal band could be detected. […] In an initial formalin concentration response study, five phases of nociceptive behaviour were identified and scored according to Yaksh et al., (2001); first phase (P1=0-5 min), interphase (Int=6-15 min), early second phase (P2A=16-40 min), late second phase (P2B=41-60 min) and entire second phase (P2A+P2B=16-60 min). […]

Series [3] is described as follows: Phase I ascending single oral dose study: pharmacokinetics. As to conditions: for Tmax / half-life: human, in vivo, po; for Tmax: single oral dose, postdose. In kind it is in vivo, human. As to the method:
Study design. The study was a Phase I, randomised, double-blind, placebo-controlled, ascending single oral dose, safety, tolerability, pharmacokinetic (PK) and pharmacodynamics (PD) study of IP2015 in healthy male subjects.
Each subject received one oral dose of IP2015 or matched placebo. […] The dose level was to be escalated to a maximum of 0.05 mg in Cohort 2 and a maximum of 0.2 mg in Cohort 3. The doses in the remaining five cohorts were to be determined based on the dose escalation criteria.
Subjects were required to attend the clinical research unit (CRU) for a screening visit within 28 days prior to dosing. […] All subjects remained in the CRU until Day 3 (48 hours postdose) for the collection of safety assessments, PK blood and urine samples, and CNS assessments.
Study Drug, Dose and Mode of Administration. IP2015 and matched placebo were provided as a powder in bottles for oral solution. […] Reconstitution was performed by a pharmacist at the clinical site prior to dosing.
The dose was taken with 240 mL of water at room temperature. Subjects/participants were fasted overnight prior to dosing until 4 hours postdose. Water was allowed ad libitum except for 1 hour before and 1 hour after dosing.
The doses used in each cohort were as follows: • Cohort 1 - 0.01 mg • Cohort 2 - 0.05 mg • Cohort 3 - 0.2 mg • Cohort 4 - 0.6 mg • Cohort 5 - 1.8 mg • Cohort 6 - 5.4 mg • Cohort 7 - 16.2 mg • Cohort 8 - 10 mg
The study also evaluated plasma PK concentrations and parameters including but not limited to: area under the plasma concentration vs time curve (AUC), from time zero to the last quantifiable concentration (AUC0-t), AUC from zero to infinity (AUC0-∞), observed maximum plasma concentration (Cmax), time to reach maximum plasma concentration (tmax) and terminal elimination half-life (T1/2) in healthy male subjects.
Statistical methods. Safety parameters were listed and summarised using descriptive statistics. Pharmacokinetic parameter estimates were calculated using noncompartmental methods. Pharmacokinetic data were listed for each subject/patient and summarised by descriptive statistics.
Dose proportionality was analysed for Part A with a linear regression model using the logarithm of a PK parameter as responsible variable and the logarithm of the dose as the independent variable. The linear regression model can be expressed as: Log(yi) = α + β*log dosei + εi [formula] where α is the intercept, dosei is the actual dose of IP2015 for the ith subject and εi is the (within subject) random error in observing yi.
The above model was applied to the following PK parameters; AUC0-t, AUC0-∞ and Cmax. Based on the linear regression model, the dose proportionality coefficient (slope) and its two-sided 90% confidence interval (CI) were estimated. Dose proportionality was declared if the 90% CI for the slope was completely contained in the following range16: 1+log(0.5)/log(r), 1+log(2)/log(r), where r is the high dose/low dose.

“Also recorded” adds a separate entry of the source. Where two headings read alike, the source gives them in different places.

T1 sequence (P23975 whole entry): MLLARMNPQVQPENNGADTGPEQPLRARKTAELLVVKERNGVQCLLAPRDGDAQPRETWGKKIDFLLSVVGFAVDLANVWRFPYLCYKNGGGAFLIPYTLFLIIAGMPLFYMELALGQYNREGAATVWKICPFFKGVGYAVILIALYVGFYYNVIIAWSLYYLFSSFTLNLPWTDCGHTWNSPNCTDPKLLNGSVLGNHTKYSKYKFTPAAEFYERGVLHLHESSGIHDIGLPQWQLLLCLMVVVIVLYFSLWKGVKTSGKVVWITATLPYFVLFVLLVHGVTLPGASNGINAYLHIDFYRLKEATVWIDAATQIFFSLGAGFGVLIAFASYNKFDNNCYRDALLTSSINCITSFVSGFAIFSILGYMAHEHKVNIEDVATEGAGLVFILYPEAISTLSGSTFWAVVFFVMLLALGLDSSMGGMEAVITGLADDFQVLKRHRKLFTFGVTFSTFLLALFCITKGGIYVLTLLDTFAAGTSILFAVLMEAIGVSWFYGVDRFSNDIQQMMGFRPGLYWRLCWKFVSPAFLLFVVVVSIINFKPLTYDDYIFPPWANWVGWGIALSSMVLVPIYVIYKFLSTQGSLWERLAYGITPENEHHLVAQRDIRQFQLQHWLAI

For the molecule `COc1cc2ccc(O[C@@H]3C[C@H]4CC[C@@H](C3)N4)cc2oc1=O` [IP2015, exo-7-[(8-azabicyclo[3.2.1]octan-3-yl)oxy]-3-methoxy-chromen-2-one], the IC50 in series [1] was determined as 95 nM. Further, the “flinches in P1, interphase and P2” value in series [2] (1, 3, 10, 30 mg/kg s.c., 60 min prior to 5% formalin) is “reduced the prevalence of flinches; also recorded: robust dose-dependent inhibition”. Also, the “observation in rats of the formalin test” value in series [2] (10 or 30 mg/kg s.c., all rats) was “spontaneous erections and/or ejaculations”. The molecule also displayed a minimal effective dose in series [2] (s.c., especially during interphase and 2nd phase, stated as likely) of less than 3 mg/kg. The “Plasma concentrations of IP2015” value in series [3] (0.01 mg and 0.05 mg single oral dose, all subjects) is recorded as “below the LLOQ”. For the same molecule, the “subjects with plasma concentrations below the LLOQ” value in series [3] (0.2 mg single oral dose) is on record as 3/7. In addition, the Tmax lay within 1 to 6 h in series [3] (read-out: tmax (range across all dose levels)) and 2.25 to 5 h in series [3] (range of medians across doses, read-out: Median tmax). The half-life in series [3] (0.6 mg, calculated for 1/6 subjects, read-out: mean t½ (converted)) is 14.5 h; in series [3] (1.8 mg, calculated for 3/6 subjects, read-out: mean t½ (converted)), 16.1 h; in series [3] (5.4 mg to 16.2 mg doses, range of means, read-out: mean T½), 23.1 to 26.3 h.
